Earlier results on 1 substance are cited in patent US20230124124A1, “COMPOSITIONS AND METHODS FOR MYOPIA CONTROL AND ORTHOKERATOLOGY LENSES TREATMENT” (Ocular Science, Inc., priority 2021, published 2023).

Data set [1] deals with human corneal epithelial cells. The following applies: 0.01% BAK; within hours.
Another data set deals with corneas. The following applies: one week of treatment.

As for benzalkonium chloride [BAK], the “effect on human corneal epithelial cells” value in data set [1] is “immediate cell retraction, cessation of normal cytokinesis and mitotic activity, and degeneration of human corneal epithelial cells”. In the data set on corneas, the aqueous tear production result is on record as “significantly reduced”, the fluorescein staining entry was “increased”, the inflammatory cell infiltration result was “increased” and the “stromal nerve fiber density (NFD)” value was “significantly reduced”.
